Results taken from ChEMBL document CHEMBL1201862, “PubChem BioAssay data set” (2004).
Calls of active or inactive are those of the source.

Tests used:
[1] = tested on: BJ; assay: BJ-TERT fibroblast viability loss – cell-based, RAS-independent, luminescence, dose response (AID 1933); type: functional; settings: Homo sapiens
[2] = Luminescence Cell-Based Dose Confirmation HTS to Identify Inhibitors of Platelet Dense Granule Release. [Related pubchem assays: 1663 (Primary HTS), 1678 (Summary of Project)]; type: functional
[3] = target: Luciferin 4-monooxygenase (Photinus pyralis, UniProt P08659); assay: inhibition of purified Photinus pyralis luciferase – biochemical, luminescence, dose response (AID 1891)
[4] = tested on: BJ; assay: cells; type: functional, cell-based; settings: Homo sapiens
[5] = tested on: BJ; assay: BJ-TERT-LT-ST fibroblast viability loss – cell-based, RAS-independent, luminescence, dose response (AID 1935); type: functional; settings: Homo sapiens;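 note: BJ fibroblasts immortalized with TERT plus LT and ST oncogenes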
[6] = DRD fibroblast viability loss – cell-based, non-viral oncogenic, luminescence, dose response (AID 1934); type: functional; settings: Homo sapiens
[7] = HEK-293T viability loss after treatment – luminescence, T-cell screen hits, cytotoxicity control for TCR NF-kB inhibitor project, dose response (AID 489026); type: functional, cell-based;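 note: cells exposed to compound about 14 hours before the viability readout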
[8] = target: Genome polyprotein (dengue virus type 2, UniProt P29990); assay: flavivirus cap methylation enzyme inhibition – biochemical, confirmation dose response, primary screen (AID 588689); type: functional
[9] = tested on: Vero; assay: viability of Vero cells under compound – cytotoxicity control for flavivirus capping enzyme inhibitors (AID 588742); type: functional; settings: Chlorocebus sabaeus
[10] = target: Albumin (Bos taurus, UniProt P02769); assay: Counterscreen for inhibitors of T-cell receptor (TCR)-CD3 interaction: Fluorescence-based biochemical high throughput dose response assay to identify inhibitors of T-cell receptor (TCR)-CD3 interaction using a TAMRA-labeled BSA probe.; type: functional
[11] = tested on: INS1; assay: INS-1E survival protection against cytokine death – cell-based, luminescence, retest, dose response (AID 449756); type: functional; settings: Rattus norvegicus;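 note: cell death triggered by IL-1 beta plus TNF-alpha plus IFN-gamma mixture; protective hits raise ATP signal compared with cytokine alone wells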
[12] = target: Eukaryotic translation initiation factor 4E (Mus musculus, UniProt P63073); assay: blockers of eIF4G binding by eIF4E – biochemical, TR-FRET, dose response (AID 855); type: functional;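 note: potency for disrupting eIF4E binding to eIF4GI seen as loss of FRET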
[13] = target: T1, SUMO-activating enzyme (Homo sapiens, UniProt Q9UBT2); assay: blockers of UBC9-mediated SUMO conjugation – biochemical, AlphaScreen, SUMOylation inhibitor project, confirmation (AID 2018); type: functional
[14] = target: T1, SUMO-activating enzyme; assay: blockers of SAE1/SAE2–UBC9 SUMO transfer – biochemical, HTRF, uHTS, primary screen (AID 2006); type: protein-complex assay
[15] = bead-based luminescence quenchers, dual-tagged ARNT – biochemical, AlphaScreen, cherry-pick, artefact control for ARNT-TACC3 interaction inhibitor project, dose response (AID 651705); type: functional;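 note: AlphaScreen bead proximity signal that flags compounds interfering with the detection technology; potency reflects signal decrease which marks the compound as an assay artifact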
[16] = tested on: HEK293; assay: HEK293T cell viability loss, resazurin readout – resazurin fluorescence, cytotoxicity control for NF-kB activator project, SAR follow-up (AID 493251); type: functional, cell-based; settings: Homo sapiens
[17] = tested on: HEK293; assay: SAR Analysis of small molecule inhibitors of T-cell specific antigen receptor-induced NF-kB activation in a HEK-293T cell line using a luminescence assay - Set 2. [Related pubchem assays (depositor defined):AID435003, AID435012, AID489026]; type: functional, cell-based; settings: Homo sapiens
[18] = tested on: Jurkat; assay: SAR Analysis of small molecule inhibitors of T-cell specific antigen receptor-induced NF-kB activation in a Jurkat cell line using a luminescence assay - Set 2. [Related pubchem assays (depositor defined):AID435003, AID435012, AID465]; type: functional, cell-based; settings: Homo sapiens
[19] = target: T2, Serine/threonine-protein phosphatase (Candida dubliniensis (strain CD36 / CBS 7987 / NCPF 3949 / NRRLY-17841) (Yeast), UniProt B9W6M3); assay: blockers of CaCl2-induced CDRE-lacZ signaling – S. cerevisiae, luminescence, secondary, dose response (AID 2388); type: functional, cell-based;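 note: yeast reporter cells carrying a calcineurin-responsive lacZ construct stimulated with calcium chloride; luminescent beta-galactosidase reporter signal in whole cells rather than isolated phosphatase activity; potency for inhibition where a drop in reporter signal means calcineurin blockade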
T2 sequence (B9W6M3 whole entry): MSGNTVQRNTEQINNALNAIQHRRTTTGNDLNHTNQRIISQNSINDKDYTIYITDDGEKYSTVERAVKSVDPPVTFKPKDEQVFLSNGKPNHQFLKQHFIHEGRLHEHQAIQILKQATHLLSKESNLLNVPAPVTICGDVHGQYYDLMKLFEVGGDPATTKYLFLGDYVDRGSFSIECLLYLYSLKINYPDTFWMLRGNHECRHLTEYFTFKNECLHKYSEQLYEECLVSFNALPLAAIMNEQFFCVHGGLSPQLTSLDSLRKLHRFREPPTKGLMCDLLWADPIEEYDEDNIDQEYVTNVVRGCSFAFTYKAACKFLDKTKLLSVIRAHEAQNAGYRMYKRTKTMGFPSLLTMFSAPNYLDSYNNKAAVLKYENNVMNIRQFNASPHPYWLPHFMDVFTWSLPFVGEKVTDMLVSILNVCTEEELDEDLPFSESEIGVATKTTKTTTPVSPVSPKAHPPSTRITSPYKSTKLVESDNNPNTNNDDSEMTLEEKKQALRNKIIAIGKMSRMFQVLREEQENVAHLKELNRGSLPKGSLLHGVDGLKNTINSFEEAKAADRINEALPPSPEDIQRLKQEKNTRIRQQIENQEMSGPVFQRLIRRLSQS

[20] = target: T2, Serine/threonine-protein phosphatase; assay: Fluorescence Cell-Based Secondary Assay to Identify Inhibitors of Calcineurin. [Related pubchem assays (depositor defined):AID1979, AID2007]; type: functional
[21] = target: ATP-dependent molecular chaperone HSP82 (Candida albicans (strain WO-1) (Yeast), UniProt C4YTQ8); assay: steroid-induced GRE reporter decrease in yeast – S. cerevisiae, luminescence, Hsp90 inhibitor project, dose response (AID 2400); type: functional, cell-based;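 note: beta-galactosidase luminescence from glucocorticoid response element reporter as proxy for Hsp90 function; inhibitor potency where signal loss means Hsp90 inhibition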
[22] = NIH-3T3 fibroblast cytotoxicity, dose response, cytotoxicity control, cell-based, fluorescence, Alamar Blue, secondary assay (AID 2327); type: functional;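 note: NIH-3T3 mouse fibroblasts cultured with fluconazole at 8 µg/mL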
[23] = fluconazole-exposed Candida albicans growth modulators – fluorescence, retest, confirmation (AID 2467); type: functional, cell-based
[24] = tested on: A-375; assay: proliferation inhibition in MITF-low A375 cells – cell-based, cherry-pick samples, set 2, counter-screen for MITF modulator project, dose response (AID 540335); type: functional; settings: Homo sapiens
[25] = target: T3, Microphthalmia-associated transcription factor (Homo sapiens, UniProt O75030); assay: reducers of TRPM1 reporter luminescence, concentration series – cell-based, SK-MEL-5, cherry-picked, set 3, MITF inhibitor project, dose response (AID 493073); type: functional;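 note: SK-MEL-5 melanoma cells with luciferase driven by the MITF target TRPM1 promoter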
T3 sequence (O75030 whole entry): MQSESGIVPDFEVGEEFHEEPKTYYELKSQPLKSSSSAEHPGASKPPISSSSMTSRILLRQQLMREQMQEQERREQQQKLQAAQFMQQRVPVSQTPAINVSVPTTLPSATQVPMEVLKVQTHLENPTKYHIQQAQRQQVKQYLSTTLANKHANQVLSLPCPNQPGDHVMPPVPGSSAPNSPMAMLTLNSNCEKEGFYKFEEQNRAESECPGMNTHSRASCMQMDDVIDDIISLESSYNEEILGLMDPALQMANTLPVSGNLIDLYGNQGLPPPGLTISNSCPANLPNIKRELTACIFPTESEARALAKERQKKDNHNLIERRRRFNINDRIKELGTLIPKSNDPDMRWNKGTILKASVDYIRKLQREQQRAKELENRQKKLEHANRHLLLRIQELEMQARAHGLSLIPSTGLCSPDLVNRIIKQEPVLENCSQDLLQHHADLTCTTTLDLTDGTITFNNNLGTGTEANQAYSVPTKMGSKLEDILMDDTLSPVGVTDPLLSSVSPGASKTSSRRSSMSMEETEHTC

[26] = cells; type: functional, cell-based
[27] = cells; type: functional, cell-based; remark: listed apart in the source
[28] = target: T4, Tyrosine-protein phosphatase non-receptor type 7 (Homo sapiens, UniProt P35236); type: functional
T4 sequence (P35236 whole entry): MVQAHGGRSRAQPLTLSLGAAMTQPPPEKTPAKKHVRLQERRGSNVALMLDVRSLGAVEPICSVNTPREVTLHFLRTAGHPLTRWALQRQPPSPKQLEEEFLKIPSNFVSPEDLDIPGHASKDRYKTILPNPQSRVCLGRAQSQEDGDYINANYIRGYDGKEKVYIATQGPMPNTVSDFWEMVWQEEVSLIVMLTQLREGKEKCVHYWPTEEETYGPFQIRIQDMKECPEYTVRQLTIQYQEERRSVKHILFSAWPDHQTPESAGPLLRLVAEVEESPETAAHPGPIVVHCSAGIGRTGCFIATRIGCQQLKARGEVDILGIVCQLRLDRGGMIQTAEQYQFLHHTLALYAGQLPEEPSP

[29] = target: Glyceraldehyde-3-phosphate dehydrogenase (Homo sapiens, UniProt P04406)
[30] = target: T5, Dual specificity protein phosphatase 6 (Rattus norvegicus, UniProt Q64346)
T5 sequence (Q64346 whole entry): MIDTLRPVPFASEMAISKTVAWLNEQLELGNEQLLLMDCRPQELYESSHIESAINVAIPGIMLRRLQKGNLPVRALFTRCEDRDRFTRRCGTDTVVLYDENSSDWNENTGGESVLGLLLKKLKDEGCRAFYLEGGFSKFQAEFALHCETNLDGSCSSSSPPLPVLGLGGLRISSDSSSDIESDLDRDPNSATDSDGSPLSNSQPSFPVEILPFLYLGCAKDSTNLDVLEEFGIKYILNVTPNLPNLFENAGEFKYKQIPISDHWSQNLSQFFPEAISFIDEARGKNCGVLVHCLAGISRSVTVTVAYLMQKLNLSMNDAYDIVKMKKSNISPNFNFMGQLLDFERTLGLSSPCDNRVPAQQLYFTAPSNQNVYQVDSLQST

[31] = target: T5, Dual specificity protein phosphatase 6; type: functional
[32] = MIN6 cell viability loss – mouse insulinoma, cytotoxicity control, dose response (AID 2122); type: functional;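 note: confirmatory high-throughput counterscreen run to flag cytotoxic compounds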
[33] = tested on: Vero; assay: cells; type: functional, cell-based; settings: Chlorocebus sabaeus
[34] = decrease of insulin promoter-GFP reporter – imaging, high-content screening, mouse beta cells (AID 1628); type: functional; settings: MIN6
[35] = tested on: Vero; assay: cells; type: functional; settings: Chlorocebus sabaeus
[36] = target: Beta-2 adrenergic receptor (Homo sapiens, UniProt P07550); assay: ADRB2 activation measured by internalization – cell-based, FAP fluorogen, flow cytometry, cherry pick 1, dose response (AID 588763); type: functional
Chain of Beta-2 adrenergic receptor (P07550 whole entry): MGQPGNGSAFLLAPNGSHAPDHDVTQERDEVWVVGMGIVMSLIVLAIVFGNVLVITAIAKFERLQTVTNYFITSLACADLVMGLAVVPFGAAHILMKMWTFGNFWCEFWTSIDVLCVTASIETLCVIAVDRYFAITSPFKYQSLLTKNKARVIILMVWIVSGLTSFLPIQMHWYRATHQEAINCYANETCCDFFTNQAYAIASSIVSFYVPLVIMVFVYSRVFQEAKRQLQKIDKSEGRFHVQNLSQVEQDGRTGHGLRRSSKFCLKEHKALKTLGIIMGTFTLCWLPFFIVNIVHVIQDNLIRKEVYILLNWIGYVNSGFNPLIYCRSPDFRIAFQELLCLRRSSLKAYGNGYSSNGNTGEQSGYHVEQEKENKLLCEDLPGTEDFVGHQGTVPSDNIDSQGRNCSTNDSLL

T1 sequence (Q9UBE0 whole entry): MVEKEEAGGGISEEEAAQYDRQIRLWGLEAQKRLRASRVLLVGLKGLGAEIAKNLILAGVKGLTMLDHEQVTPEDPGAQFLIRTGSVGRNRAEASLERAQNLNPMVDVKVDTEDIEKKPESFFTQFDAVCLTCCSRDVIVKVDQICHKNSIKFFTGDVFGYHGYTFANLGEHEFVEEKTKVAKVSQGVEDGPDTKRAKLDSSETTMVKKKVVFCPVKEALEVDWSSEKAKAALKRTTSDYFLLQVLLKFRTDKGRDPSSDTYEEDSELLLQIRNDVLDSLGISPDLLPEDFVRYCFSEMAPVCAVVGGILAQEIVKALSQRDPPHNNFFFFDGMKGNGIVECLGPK
T1 sequence (Q9UBT2 whole entry): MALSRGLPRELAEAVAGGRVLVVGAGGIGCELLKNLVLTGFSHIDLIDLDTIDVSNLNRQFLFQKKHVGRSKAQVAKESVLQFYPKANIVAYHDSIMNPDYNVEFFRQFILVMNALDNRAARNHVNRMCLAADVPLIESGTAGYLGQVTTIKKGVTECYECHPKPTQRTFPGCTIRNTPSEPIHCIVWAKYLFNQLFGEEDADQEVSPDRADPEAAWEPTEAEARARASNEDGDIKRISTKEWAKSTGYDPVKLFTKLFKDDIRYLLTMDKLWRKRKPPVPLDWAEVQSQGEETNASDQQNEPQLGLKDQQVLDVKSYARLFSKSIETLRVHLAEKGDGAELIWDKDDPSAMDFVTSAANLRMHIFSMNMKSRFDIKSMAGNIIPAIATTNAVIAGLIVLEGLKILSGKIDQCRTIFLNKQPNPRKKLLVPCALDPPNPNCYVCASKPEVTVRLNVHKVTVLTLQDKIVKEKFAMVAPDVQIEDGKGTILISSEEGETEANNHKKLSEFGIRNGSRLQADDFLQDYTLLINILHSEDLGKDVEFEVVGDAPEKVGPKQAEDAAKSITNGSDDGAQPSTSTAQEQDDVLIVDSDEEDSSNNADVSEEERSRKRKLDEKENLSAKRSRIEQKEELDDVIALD
Chain of Glyceraldehyde-3-phosphate dehydrogenase (P04406 whole entry): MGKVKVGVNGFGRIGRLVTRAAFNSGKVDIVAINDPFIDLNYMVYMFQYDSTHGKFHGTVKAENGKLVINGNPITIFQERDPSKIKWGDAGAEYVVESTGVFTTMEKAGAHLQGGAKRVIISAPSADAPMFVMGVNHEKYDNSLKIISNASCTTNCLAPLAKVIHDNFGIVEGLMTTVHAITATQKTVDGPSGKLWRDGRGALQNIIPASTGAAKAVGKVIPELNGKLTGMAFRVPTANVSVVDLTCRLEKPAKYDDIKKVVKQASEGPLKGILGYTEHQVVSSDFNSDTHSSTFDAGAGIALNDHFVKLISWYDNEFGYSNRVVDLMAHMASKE
Chain of Eukaryotic translation initiation factor 4E (P63073 whole entry): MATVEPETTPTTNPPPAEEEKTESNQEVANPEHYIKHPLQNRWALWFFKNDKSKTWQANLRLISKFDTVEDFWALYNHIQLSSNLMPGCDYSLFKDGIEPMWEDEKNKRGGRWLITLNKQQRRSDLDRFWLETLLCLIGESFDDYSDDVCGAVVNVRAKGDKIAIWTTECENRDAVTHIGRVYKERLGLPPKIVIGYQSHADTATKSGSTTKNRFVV
Chain of Luciferin 4-monooxygenase (P08659 whole entry): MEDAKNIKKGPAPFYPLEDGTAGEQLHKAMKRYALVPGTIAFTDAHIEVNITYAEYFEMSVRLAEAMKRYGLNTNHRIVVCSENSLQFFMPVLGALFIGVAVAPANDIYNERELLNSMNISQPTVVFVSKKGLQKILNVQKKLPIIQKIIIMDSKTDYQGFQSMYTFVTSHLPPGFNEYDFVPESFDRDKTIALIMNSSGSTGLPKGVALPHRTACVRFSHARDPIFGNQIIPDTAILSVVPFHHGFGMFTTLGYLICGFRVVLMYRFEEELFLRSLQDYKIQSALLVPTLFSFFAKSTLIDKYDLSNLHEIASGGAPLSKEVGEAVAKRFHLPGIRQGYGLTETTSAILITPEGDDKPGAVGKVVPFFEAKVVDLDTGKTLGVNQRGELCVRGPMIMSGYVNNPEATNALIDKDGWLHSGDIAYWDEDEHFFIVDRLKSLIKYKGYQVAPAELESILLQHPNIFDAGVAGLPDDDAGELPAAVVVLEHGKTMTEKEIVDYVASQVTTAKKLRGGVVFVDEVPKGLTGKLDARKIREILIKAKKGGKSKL
Chain of ATP-dependent molecular chaperone HSP82 (C4YTQ8 whole entry): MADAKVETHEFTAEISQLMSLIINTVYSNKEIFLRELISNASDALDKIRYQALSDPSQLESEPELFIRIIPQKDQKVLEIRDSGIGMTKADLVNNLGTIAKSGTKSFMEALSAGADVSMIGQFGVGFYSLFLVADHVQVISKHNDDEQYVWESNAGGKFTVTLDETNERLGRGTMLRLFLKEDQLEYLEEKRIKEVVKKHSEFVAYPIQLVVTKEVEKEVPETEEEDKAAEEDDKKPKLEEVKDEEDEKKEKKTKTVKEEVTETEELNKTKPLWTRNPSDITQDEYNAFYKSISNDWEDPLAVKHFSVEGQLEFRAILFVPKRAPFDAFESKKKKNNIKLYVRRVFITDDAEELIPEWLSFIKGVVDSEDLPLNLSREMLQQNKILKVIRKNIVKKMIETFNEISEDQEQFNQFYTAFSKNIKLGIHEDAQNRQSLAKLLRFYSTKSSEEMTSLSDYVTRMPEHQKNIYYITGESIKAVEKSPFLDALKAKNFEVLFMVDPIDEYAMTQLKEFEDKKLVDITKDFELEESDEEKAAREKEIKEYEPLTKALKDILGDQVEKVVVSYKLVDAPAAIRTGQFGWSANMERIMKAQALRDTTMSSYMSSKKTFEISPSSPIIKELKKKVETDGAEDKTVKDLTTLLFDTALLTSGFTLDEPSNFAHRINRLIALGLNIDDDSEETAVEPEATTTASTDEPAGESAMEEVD
Chain of Albumin (P02769 whole entry): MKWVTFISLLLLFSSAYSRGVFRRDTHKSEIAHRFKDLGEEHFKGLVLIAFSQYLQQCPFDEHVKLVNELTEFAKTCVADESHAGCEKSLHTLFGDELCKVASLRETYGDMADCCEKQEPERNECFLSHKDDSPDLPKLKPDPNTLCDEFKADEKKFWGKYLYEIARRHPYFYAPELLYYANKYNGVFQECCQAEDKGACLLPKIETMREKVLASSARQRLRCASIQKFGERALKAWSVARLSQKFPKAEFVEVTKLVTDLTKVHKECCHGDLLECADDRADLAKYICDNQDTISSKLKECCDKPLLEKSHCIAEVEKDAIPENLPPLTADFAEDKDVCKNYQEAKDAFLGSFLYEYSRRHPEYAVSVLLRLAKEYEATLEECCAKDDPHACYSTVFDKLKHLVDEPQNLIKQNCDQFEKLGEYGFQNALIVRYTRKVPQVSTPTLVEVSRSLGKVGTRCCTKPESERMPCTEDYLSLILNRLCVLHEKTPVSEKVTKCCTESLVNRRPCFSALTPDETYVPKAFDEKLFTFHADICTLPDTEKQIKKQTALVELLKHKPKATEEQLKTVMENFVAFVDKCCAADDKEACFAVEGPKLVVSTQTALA
Chain of Genome polyprotein (P29990 2492-3391 limits assumed): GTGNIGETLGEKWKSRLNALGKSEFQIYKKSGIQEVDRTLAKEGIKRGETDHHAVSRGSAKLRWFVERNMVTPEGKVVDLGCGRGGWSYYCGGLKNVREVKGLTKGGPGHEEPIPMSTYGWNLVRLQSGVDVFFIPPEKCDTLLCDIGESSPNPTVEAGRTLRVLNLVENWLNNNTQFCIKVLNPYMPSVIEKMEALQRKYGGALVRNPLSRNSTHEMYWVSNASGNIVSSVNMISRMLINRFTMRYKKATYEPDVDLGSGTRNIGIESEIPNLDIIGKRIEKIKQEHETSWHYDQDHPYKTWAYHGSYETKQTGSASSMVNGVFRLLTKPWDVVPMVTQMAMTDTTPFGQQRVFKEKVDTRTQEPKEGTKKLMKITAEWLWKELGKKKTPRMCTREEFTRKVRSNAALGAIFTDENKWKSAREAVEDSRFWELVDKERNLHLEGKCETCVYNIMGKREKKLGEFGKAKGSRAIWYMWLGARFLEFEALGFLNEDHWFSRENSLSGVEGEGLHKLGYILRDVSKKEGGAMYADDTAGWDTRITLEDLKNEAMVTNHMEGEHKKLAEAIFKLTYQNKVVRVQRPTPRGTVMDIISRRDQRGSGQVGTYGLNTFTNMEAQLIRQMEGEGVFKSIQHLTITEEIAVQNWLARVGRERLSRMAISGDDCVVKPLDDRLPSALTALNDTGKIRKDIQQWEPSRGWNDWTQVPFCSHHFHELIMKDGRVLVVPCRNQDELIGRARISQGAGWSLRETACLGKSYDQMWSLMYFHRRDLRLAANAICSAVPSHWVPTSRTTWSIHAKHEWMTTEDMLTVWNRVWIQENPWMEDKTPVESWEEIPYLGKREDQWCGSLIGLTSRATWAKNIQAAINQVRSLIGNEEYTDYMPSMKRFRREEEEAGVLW

Cc1ccc(S(=O)(=O)Cc2ccc(C(=O)N3CCN(c4cccc(C)c4C)CC3)o2)cc1
EC50 [1]: 8.13 µM (inconclusive) | EC50 [2]: > 112 µM (not active) | EC50 [3]: 57.2 µM (active) | EC50 [4]: 18 µM (active) | EC50 [5]: 4.2 µM (active) | EC50 [6]: 13.3 µM (inconclusive) | IC50 [7]: > 80 µM (inactive)

Cc1ccccc1C(=O)Nc1cccc(C(=O)N/N=C/c2cc(Cl)cc([N+](=O)[O-])c2O)c1
IC50 [8]: > 100 µM (active) | CC50 [9]: 33 µM (active) | IC50 [10]: > 94.1 µM (inactive) | AC50 [11]: 7.14 µM (active) | IC50 [12]: 50 µM (inactive) | IC50 [13]: 6.22 µM (active) | IC50 [14]: > 100 µM (inactive) | AC50 [15]: 95.3 µM (active)

CC(C)CC(=O)NC(c1ccccc1)c1ccc2cccnc2c1O (stereo not drawn)
IC50 [16]: 10.4 µM (active) | IC50 [17]: 7.19 µM (active) | IC50 [18]: 4.18 µM (active)

Cc1ccc(Nc2nc(N)c([N+](=O)[O-])c(N3CCC(C)CC3)n2)cc1C
EC50 [19]: > 180 µM (inactive) | EC50 [20]: 9.17 µM (active) | EC50 [21]: 4.42 µM (active) | EC50 [22]: > 150 µM (inactive) | EC50 [23]: 0.207 µM (active)

O=C(N/N=C\c1cc(Cl)ccc1O)c1ccc(S(=O)(=O)N2CCCCC2)cc1
AC50 [24]: 46.3 µM (active) | AC50 [11]: 1.01 µM (active) | AC50 [25]: 2.81 µM (active) | EC50 [22]: 63.9 µM (inconclusive) | EC50 [26]: > 350 µM (not active) | EC50 [27]: 265 µM (active) | EC50 [23]: 0.381 µM (active)

CCn1c(=O)n(C)c(=O)n([C@@H](Cc2ccccc2)C(N)=O)c1=O
IC50 [28]: > 100 µM (not active) | IC50 [29]: > 100 µM (not active) | IC50 [30]: > 100 µM (inactive) | IC50 [31]: > 100 µM (inactive)

Cc1ccc(-n2ncc3c(SCc4cccnc4)ncnc32)c(C)c1
IC50 [32]: 1.09 µM (active) | IC50 [33]: 21.8 µM (active) | IC50 [34]: 1.77 µM (active) | CC50 [35]: 20.9 µM (active)

CCCn1c(=O)nc(NCc2ccccc2OC)[nH]c1=O
IC50 [28]: > 100 µM (not active) | IC50 [29]: > 100 µM (not active) | IC50 [30]: > 100 µM (inactive) | IC50 [31]: > 100 µM (inactive)

CCOCCCNC(=O)c1cc(-c2cccnc2)nc2ccc(S(=O)(=O)N3CCC(C)CC3)cc12
EC50 [36]: 6.09 µM (inactive)
